From US20220079889A1, “USE OF CANNABANOIDS IN THE TREATMENT OF PROLIFERATIVE DIABETIC RETINOPATHY” (VERDANT PHARMACEUTICALS, LLC, priority 2020, published 2022)
“Also recorded” adds a separate entry of the source.

What was measured:
[1] = system: IL-1β-induced corneal lymphangiogenesis; experiment: IL-1β-induced corneal lymphangiogenesis (anti-LYVE-1 stain); format: in vivo, BALB/c mice; settings: 0.3 mg/kg daily i.p.
Protocol: BALB/c mice were anesthetized by intraperitoneal (i.p.) injection of pentobarbital sodium (60 mg/kg). Hydron pellets (0.3 μl) containing 30 ng mouse IL-1β (401-ML, R&D Systems) were prepared and implanted into the corneas. Pellets were positioned 1 mm from the corneal limbus. Implanted eyes were treated with Bacitracin ophthalmic ointment (E. Fougera & Co.) to prevent infection.
To block CB, mice received daily i.p. injections of a specific CBD. Compound II (R-tech Ueno Ltd., Tokyo, Japan) as described above. A daily dose of 0.3 mg/kg was administered at day 0 and continued until the sixth day after implantation. Two, four and six days after implantation, digital images of the corneal vessels were obtained and recorded using OpenLab software version 2.2.5 (Improvision Inc.) with standardized illumination and contrast and were saved onto disks. The quantitative analysis of new vessel growth in the mouse corneas was performed using Scion Image software (version 4.0.2, Scion Corp.).
Eyes were enucleated and fixed with 4% paraformaldehyde for one hour at 4° C. For whole-mount preparation, the corneas were exposed by removing other portions of the eye (i.e iris, sclera, retina, and conjunctiva). […]

MCP-1 = experiment: ELISA of RPE-choroid complex after laser injury: MCP-1; format: in vivo, rat; settings: laser-treated animals, 3 days after laser injury; 0.3 mg/kg BW daily i.p.
Protocol: To block CB, a specific CBD, Compound 11 described above, was used (R-tech Ueno, Ltd., Tokyo, Japan). After laser injury, the inhibitor (0.3 mg/kg BW) was administered to the animals by daily i.p. injections. As a control, some animals received the same regimen for the vehicle solution alone.
The RPE-choroid complex was carefully isolated from eyes 3 days after photocoagulation and placed in 300 μl of lysis buffer supplemented with protease inhibitors and sonicated. The lysate was centrifuged at 15,000 rpm for 15 minutes at 4° C. and the levels of TNF-α, monocyte chemotactic protein (MCP)-1, and intercellular adhesion molecule (ICAM)-1 were determined with rat TNF-α (BI) bioscience), MCP-1 (BD bioscience) and ICAM-1 (R&D Systems, Minneapolis, Minn.) enzyme-linked immunosorbent assay (ELISA) kits according to the manufacturers' protocols. Total protein concentration was determined using a Bio-Rad Protein Assay Kit (Bio-Rad Laboratories Hercules, Calif.) and dilutions of bovine serum albumin (Bio-Rad Laboratories) as standards.

CNV lesions = experiment: Laser injury CNV model, CNV size in choroidal flat mounts; format: in vivo, Brown-Norway rats; settings: rats
Text: For reverse transcription polymerase chain reaction (RT-PCR) detection and immunofluorescence staining of CB in the choroid, Lewis rats (8-10 weeks old, Charles River Laboratories, Inc., Wilmington, Mass.) were used. To generate CNV in the laser injury model, Brown-Norway rats (10-12 weeks old, Charles River Laboratories, Inc., Wilmington, Mass.) were used. Rats were housed in plastic cages in a climate controlled animal facility and were fed laboratory chow and water ad libitum. All animal experiments were conducted in accordance with the ARVO Statement for the Use of Animals in Ophthalmic and Vision Research.
Lewis rats were euthanized by overdose anesthesia and perfused with PBS (500 ml/kg body weight (BW)). Eyes were immediately enucleated and the retinal pigment epithelium (RPE)-choroid complex was obtained from the rat eyes and homogenized in extraction reagent (TRIzol Reagent; Invitrogen, Carlsbad, Calif.). […] PCR products were analyzed by electrophoresis in a 1.5% agarose gel and stained with ethidium bromide ([…]). The expected sizes of the amplified cDNA fragments of CB and GAPDH were 341 bp and 387 bp, respectively Band densities were quantified using NIH Image 1.41 software (available by ftp from zippy.nimh.nih.gov/or from the web site, rsb info.nih.gov/nih-image: developed by Wayne Rasband, National Institutes of Health, Bethesda, Md.). […]

## CC(=O)Nc1nc(CCc2ccc(NC(=N)NN)cc2)c(Cc2ccc(S(C)(=O)=O)cc2)s1 [Compound II]
[1]
  effect on corneal lymphangiogenesis (in words): effectively suppresses corneal lymphangiogenesis
MCP-1
  protein level of MCP-1 in the RPE-choroid complex: 662 ± 52 pg/mg
CNV lesions
  effect on CNV / CNV size (in words): significantly decreased; also recorded: effectively suppresses CNV
